Reference: ChEMBL document CHEMBL1201862, “PubChem BioAssay data set” (2004)
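How tested: cells in 96-well plates exposed to compound for 48 hours at five concentrations. The concentration for 50% growth inhibition is given as GI50.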 The source made the active and inactive calls. Rule as the data show it: active = GI50 up to about 1.1 µM and inactive = higher.

Tests used:
Assay in all cases: NCI anticancer screen, dose series, 48 h
[1] = tested on: SF-539
[2] = tested on: SK-MEL-5
[3] = tested on: OVCAR-5
[4] = tested on: HL-60
[5] = tested on: Malme-3M
[6] = tested on: MOLT-4
[7] = tested on: SK-MEL-2
[8] = tested on: SNB-78
[9] = tested on: 786-0
[10] = tested on: COLO 205
[11] = tested on: M14
[12] = tested on: HOP-62
[13] = tested on: A549
[14] = tested on: TK-10
[15] = tested on: UACC-257
[16] = tested on: KM12
[17] = tested on: SR
[18] = tested on: EKVX
[19] = tested on: KM-20L2
[20] = tested on: SF-295
[21] = tested on: SW-620
[22] = tested on: IGROV-1
[23] = tested on: HCT-15
[24] = tested on: OVCAR-4
[25] = tested on: UACC-62
[26] = tested on: CAKI-1
[27] = tested on: DMS-273
[28] = tested on: HT-29
[29] = tested on: M19-MEL
[30] = tested on: HCT-116
[31] = tested on: SF-268
[32] = tested on: SNB-75
[33] = tested on: HOP-92
[34] = tested on: NCI-H226
[35] = tested on: NCI-H23
[36] = tested on: SK-OV-3
[37] = tested on: CCRF-CEM
[38] = tested on: DMS-114
[39] = tested on: LOX IMVI
[40] = tested on: DLD-1
[41] = tested on: OVCAR-8
[42] = tested on: A498
[43] = tested on: ACHN
[44] = tested on: NCI-H460
[45] = tested on: LXFL 529
[46] = tested on: XF498
[47] = tested on: OVCAR-3
[48] = tested on: HCC 2998
[49] = tested on: SK-MEL-28
[50] = tested on: SN12C
[51] = tested on: NCI-H522
[52] = tested on: SNB-19
[53] = tested on: UO-31
[54] = tested on: U-251
[55] = tested on: K562
[56] = tested on: RPMI-8226

O=C1CSC(C(/N=N/c2ccccc2)=C2Nc3ccccc3N2)=N1
GI50 [1]: 26.4 µM (inactive)
GI50 [2]: 39.8 µM (inactive)
GI50 [3]: > 100 µM (inactive)
GI50 [4]: 35.9 µM (inactive)
GI50 [5]: 58.3 µM (inactive)
GI50 [6]: 10 µM (inactive)
GI50 [7]: 53.3 µM (inactive)
GI50 [8]: 46.8 µM (inactive)
GI50 [9]: 25.8 µM (inactive)
GI50 [10]: > 100 µM (inactive)
GI50 [11]: 70.3 µM (inactive)
GI50 [12]: 23.7 µM (inactive)
GI50 [13]: 53.2 µM (inactive)
GI50 [14]: > 100 µM (inactive)
GI50 [15]: 24.4 µM (inactive)
GI50 [16]: 66.1 µM (inactive)
GI50 [17]: 12.5 µM (inactive)
GI50 [18]: 31.1 µM (inactive)
GI50 [19]: > 100 µM (inactive)
GI50 [20]: 22.1 µM (inactive)
GI50 [21]: 93.5 µM (inactive)
GI50 [22]: > 100 µM (inactive)
GI50 [23]: 54.6 µM
GI50 [24]: > 100 µM (inactive)
GI50 [25]: 31.8 µM (inactive)
GI50 [26]: 24.9 µM (inactive)
GI50 [27]: 20.1 µM (inactive)
GI50 [28]: 83.4 µM (inactive)
GI50 [29]: 36.7 µM (inactive)
GI50 [30]: 32.4 µM (inactive)
GI50 [31]: 36.1 µM (inactive)
GI50 [32]: 34.4 µM (inactive)
GI50 [33]: 18.5 µM (inactive)
GI50 [34]: 13.6 µM (inactive)
GI50 [35]: 74.5 µM (inactive)
GI50 [36]: 18.3 µM (inactive)
GI50 [37]: 5.79 µM (inactive)
GI50 [38]: 36.1 µM (inactive)
GI50 [39]: 52.1 µM (inactive)
GI50 [40]: 64.3 µM (inactive)
GI50 [41]: 39.1 µM (inactive)
GI50 [42]: 30.7 µM (inactive)
GI50 [43]: 31 µM (inactive)
GI50 [44]: 38.6 µM (inactive)
GI50 [45]: 34 µM (inactive)
GI50 [46]: 27.9 µM (inactive)
GI50 [47]: 27.4 µM (inactive)
GI50 [48]: > 100 µM (inactive)
GI50 [49]: 29.6 µM (inactive)
GI50 [50]: 66.8 µM (inactive)
GI50 [51]: 56.4 µM (inactive)
GI50 [52]: 31.9 µM (inactive)
GI50 [53]: 95.7 µM (inactive)
GI50 [54]: 97.9 µM (inactive)
GI50 [55]: 33.5 µM (inactive)

N#CCCN(c1ccc(/C=N/c2nc(-c3ccccc3)cs2)cc1)S(=O)(=O)c1ccccc1
GI50 [1]: > 100 µM (inactive)
GI50 [2]: 35 µM (inactive)
GI50 [3]: > 100 µM (inactive)
GI50 [4]: 30.8 µM (inactive)
GI50 [5]: > 100 µM (inactive)
GI50 [6]: 44.7 µM (inactive)
GI50 [7]: 86.9 µM (inactive)
GI50 [8]: > 100 µM (inactive)
GI50 [9]: > 100 µM (inactive)
GI50 [10]: > 100 µM (inactive)
GI50 [11]: 81.7 µM (inactive)
GI50 [12]: 96.6 µM (inactive)
GI50 [13]: 76.2 µM (inactive)
GI50 [14]: 86.5 µM (inactive)
GI50 [15]: 96.4 µM (inactive)
GI50 [16]: > 100 µM (inactive)
GI50 [18]: 37.5 µM (inactive)
GI50 [19]: > 100 µM (inactive)
GI50 [20]: 46.2 µM (inactive)
GI50 [21]: 83.8 µM (inactive)
GI50 [56]: 44.4 µM (inactive)
GI50 [22]: > 100 µM (inactive)
GI50 [23]: > 100 µM
GI50 [24]: 64.7 µM (inactive)
GI50 [25]: 59.2 µM (inactive)
GI50 [26]: 25.8 µM (inactive)
GI50 [27]: > 100 µM (inactive)
GI50 [28]: > 100 µM (inactive)
GI50 [29]: > 100 µM (inactive)
GI50 [30]: 75.3 µM (inactive)
GI50 [31]: 56.1 µM (inactive)
GI50 [32]: 19.2 µM (inactive)
GI50 [35]: 78.9 µM (inactive)
GI50 [36]: > 100 µM (inactive)
GI50 [37]: 48.5 µM (inactive)
GI50 [38]: 39.4 µM (inactive)
GI50 [39]: > 100 µM (inactive)
GI50 [40]: 96.8 µM (inactive)
GI50 [41]: > 100 µM (inactive)
GI50 [42]: 75.9 µM (inactive)
GI50 [45]: 56.9 µM (inactive)
GI50 [46]: > 100 µM (inactive)
GI50 [47]: 39.8 µM (inactive)
GI50 [48]: 64.9 µM (inactive)
GI50 [49]: 85.3 µM (inactive)
GI50 [50]: 92.5 µM (inactive)
GI50 [51]: 31.6 µM (inactive)
GI50 [52]: > 100 µM (inactive)
GI50 [53]: 23.6 µM (inactive)
GI50 [54]: > 100 µM (inactive)
GI50 [55]: 35.6 µM (inactive)
